# Reference: patent US20140031217A1, “HERBICIDAL COMPOSITIONS COMPRISING 4-AMINO-3-CHLORO-5-FLUORO-6-(4-CHLORO-2-FLUORO-3-METHOXYPHENYL)PYRIDINE-2-CARBOXYLIC ACID OR A DERIVATIVE THEREOF AND AUXIN TRANSPORT INHIBITORS” (DOW AGROSCIENCES LLC, priority 2012, published 2014)
# What was measured:
# BRAPP = test: Postemergence foliar-applied greenhouse weed control, BRAPP; assay type: in vivo, Brachiaria platyphylla (Griseb.) Nash
# Text: (§1) Seeds or nutlets of the desired test plant species were planted in a soil matrix prepared by mixing a loam or sandy loam soil (e.g., 28.6 percent silt, 18.8 percent clay, and 52.6 percent sand, with a pH of about 5.8 and an organic matter content of about 1.8 percent) and calcareous grit in an 80 to 20 ratio. The soil matrix was contained in plastic pots with a volume of 1 quart and a surface area of 83.6 square centimeters (cm^2). When required to ensure good germination and healthy plants, a fungicide treatment and/or other chemical or physical treatment was applied. The plants were grown for 8-22 days in a greenhouse with an approximate 14 h photoperiod which was maintained at about 29° C. during the day and 26° C. during the night. Nutrients (Peters Excel® 15-5-15 5-Ca 2-Mg and iron chelate) were applied in the irrigation solution as needed and water was added on a regular basis. Supplemental lighting was provided with overhead metal halide 1000-Watt lamps as necessary. The plants were employed for testing when they reached the first through fourth true leaf stage.
# (§2) Treatments consisted of the acid or esters of 4-amino-3-chloro-5-fluoro-6-(4-chloro-2-fluoro-3-methoxy-phenyl) pyridine-2-carboxylic acid (Compound A), each formulated as an SC (suspension concentrate), and various herbicidal components alone and in combination. Forms of compound A were applied on an acid equivalent basis.
# (§3) Other herbicidal components were applied on an active ingredient basis and included auxin transport inhibiting (ATI) herbicides chlorflurenol (technical material), chlorflurenol-methyl (technical material), diflufenzopyr (technical material), diflufenzopyr sodium (technical material), flurenol-methyl (technical material) and naptalam (technical material).
# (§4) Treatment requirements were calculated based upon the rates being tested, the concentration of active ingredient or acid equivalent in the formulation, and a 12 mL application volume at a rate of 187 L/ha.
# (§5) For treatments comprised of formulated and technical compounds, weighed amounts of the technical materials were placed individually in 25 mL glass vials and dissolved in a volume of 97:3 v/v acetone/DMSO to obtain 12× stock solutions, and measured amounts of the formulated compounds were placed individually in 25 mL glass vials and diluted in a volume of 1.5% (v/v) crop oil concentrate or water to obtain 12× stock solutions. […] Application solutions were prepared by adding an appropriate amount of each stock solution (e.g., 1 mL) and diluted to the appropriate final concentrations with the addition of an appropriate amount of an aqueous mixture of 1.5% (v/v) crop oil concentrate so that the final spray solutions contained 1.25% (v/v) crop oil concentrate. When required, additional water and/or 97:3 v/v acetone/DMSO was added to individual application solutions so that the final acetone and DMSO concentrations of the application solutions being compared were 8.1% and 0.25%, respectively.
# (§6) All stock solutions and applications solutions were visually inspected for compound compatibility prior to application. Spray solutions were applied to the plant material with an overhead Mandel track sprayer equipped with an 8002E nozzle calibrated to deliver 187 L/ha over an application area of 0.503 m^2 at a spray height of 18 to 20 inches (46 to 50 cm) above average plant canopy height. Control plants were sprayed in the same manner with the solvent blank.
# (§7) The treated plants and control plants were placed in a greenhouse as described above and watered by sub-irrigation to prevent wash-off of the test compounds. After approximately 3 weeks, the condition of the test plants as compared with that of the untreated plants was determined visually and scored on a scale of 0 to 100 percent where 0 corresponds to no injury or growth inhibition and 100 corresponds to complete kill. […]
# DIGSA = test: Postemergence foliar-applied greenhouse weed control, DIGSA; assay type: in vivo, Digitaria sanguinalis (L.) Scop.; settings: 21 DAA
# Text: as §1, §2, §3, §4, §5, §6, §7
# LEFCH = test: Postemergence foliar-applied greenhouse weed control, LEFCH; assay type: in vivo, Leptochloa chinensis (L.) Nees
# Text: as §1, §2, §3, §4, §5, §6, §7
# ECHCO = test: Postemergence foliar-applied greenhouse weed control, ECHCO; assay type: in vivo, Echinochloa colona (L.) Link; settings: 21 DAA
# Text: as §1, §2, §3, §4, §5, §6, §7
# IPOHE = test: Postemergence foliar-applied greenhouse weed control, IPOHE; assay type: in vivo, Ipomoea hederacea Jacq.
# Text: as §1, §2, §3, §4, §5, §6, §7
# ECHCG = test: In-water applied (paddy) greenhouse weed control, ECHCG; assay type: in vivo, Echinochloa crusgalli (L.) Beauv.; settings: 19 DAA
# Description: (§8) Weed seeds or nutlets of the desired test plant species were planted in puddled soil (mud) prepared by mixing a shredded, non-sterilized mineral soil (50.5 percent silt, 25.5 percent clay, and 24 percent sand, with a pH of about 7.6 and an organic matter content of about 2.9 percent) and water at a 1:1 volumetric ratio. The prepared mud was dispensed in 365 mL aliquots into 16-ounce (oz.) non-perforated plastic pots with a surface area of 86.59 square centimeters (cm^2) leaving a headspace of 3 centimeters (cm) in each pot. Mud was allowed to dry overnight prior to planting or transplanting. Rice seeds were planted in Sun Gro MetroMix® 306 planting mixture, which typically has a pH of 6.0 to 6.8 and an organic matter content of about 30 percent, in plastic plug trays. Seedlings at the second or third leaf stage of growth were transplanted into 840 mL of mud contained in 32-oz. non-perforated plastic pots with a surface area of 86.59 cm^2 4 days prior to herbicide application. The paddy was created by filling the headspace of the pots with 2.5 to 3 cm of water. When required to ensure good germination and healthy plants, a fungicide treatment and/or other chemical or physical treatment was applied. The plants were grown for 4-22 days in a greenhouse with an approximate 14 h photoperiod which was maintained at about 29′C during the day and 26° C. during the night. Nutrients were added as Osmocote® (19:6:12, N:P:K+minor nutrients) at 2 g per 16-oz. pot and 4 g per 960-mL 32-oz. pot. Water was added on a regular basis to maintain the paddy flood, and supplemental lighting was provided with overhead metal halide 1000-Watt lamps as necessary. The plants were employed for testing when they reached the second or third true leaf stage.
# (§9) Treatments consisted of the acid or esters of 4-amino-3-chloro-5-fluoro-6-(4-chloro-2-fluoro-3-methoxy-phenyl)pyridine-2-carboxylic acid (compound A) each formulated as an SC and various herbicidal components alone and in combination. Forms of compound A were applied on an acid equivalent basis.
# (§10) Other herbicidal components were applied on an active ingredient basis and included auxin transport inhibiting (ATI) herbicides chlorflurenol-methyl (technical material), chlorflurenol (technical material), diflufenzopyr (technical material), dilfufenzopyr sodium (technical material), flurenol-methyl (technical material,) and naptalam (technical material).
# (§11) Treatment requirements for each compound or herbicidal component were calculated based upon the rates being tested, the concentration of active ingredient or acid equivalent in the formulation, an application volume of 2 mL per component per pot, and an application area of 86.59 cm^2 per pot.
# (§12) For formulated compounds, a measured amount was placed in an individual 100 or 200 mL glass vial and was dissolved in a volume of 1.25% (v/v) Agri-Dex® crop oil concentrate to obtain application solutions.
# (§13) For technical grade compounds, a weighed amount was placed in an individual 100 to 200 mL glass vial and was dissolved in a volume of acetone to obtain concentrated stock solutions. […] The concentrated stock solutions obtained were diluted with an equivalent volume of an aqueous mixture containing 2.5% (v/v) crop oil concentrate so that the final application solutions contained 1.25% (v/v) crop oil concentrate.
# (§14) Applications were made by injecting with a pipetter appropriate amounts of the application solutions, individually and sequentially, into the aqueous layer of the paddy. Control plants were treated in the same manner with the solvent blank. Applications were made so that all treated plant material received the same concentrations of acetone and crop oil concentrate.
# (§15) The treated plants and control plants were placed in a greenhouse as described above and water was added as needed to maintain a paddy flood. […]
# CYPRO = test: In-water applied (paddy) greenhouse weed control, CYPRO; assay type: in vivo, Cyperus rotundus L.; settings: 19 DAA
# Description: as §8, §9, §10, §11, §12, §13, §14, §15
# FIMMI = test: In-water applied (paddy) greenhouse weed control, FIMMI; assay type: in vivo, Fimbristylis miliacea (L.) Vahl; settings: 19 DAA
# Description: as §8, §9, §10, §11, §12, §13, §14, §15
# CYPIR = test: Postemergence foliar-applied greenhouse weed control, CYPIR; assay type: in vivo, Cyperus iria L.; settings: 22 DAA
# Text: as §1, §2, §3, §4, §5, §6, §7
# ECHOR = test: In-water applied (paddy) greenhouse weed control, ECHOR; assay type: in vivo, Echinochloa oryzoides (Ard.) Fritsch; settings: 19 DAA
# Description: as §8, §9, §10, §11, §12, §13, §14, §15
smiles,measurement,setting,value
"C/C(=N\NC(=O)Nc1cc(F)cc(F)c1)c1ncccc1C(=O)O [Diflufenzopyr, 2-{(E)-1-[4-(3,5-difluorophenyl)-semicarbazono]-ethyl}nicotinic acid]",Visual Weed Control (%) Obs,"BRAPP; 21 DAA, 8.75 gai/ha",0%
same,Visual Weed Control (%) Obs,"BRAPP; 21 DAA, 17.5 gai/ha",40%
same,Visual Weed Control (%) Obs,"BRAPP; 21 DAA, 35 gai/ha",80%
same,Visual Weed Control (%) Obs,DIGSA; 17.5 gai/ha,10%
same,Visual Weed Control (%) Obs,DIGSA; 35 gai/ha,20%
same,Visual Weed Control (%) Obs,"LEFCH; 21 DAA, 8.75 gai/ha",0%
same,Visual Weed Control (%) Obs,"LEFCH; 21 DAA, 17.5 gai/ha",10%
same,Visual Weed Control (%) Obs,ECHCO; 8.75 gai/ha,30%
same,Visual Weed Control (%) Obs,ECHCO; 17.5 gai/ha,30%
same,Visual Weed Control (%) Obs,ECHCO; 35 gai/ha,40%
same,Visual Weed Control (%) Obs,"IPOHE; 21 DAA, 8.75 gai/ha",75%
same,Visual Weed Control (%) Obs,"IPOHE; 21 DAA, 17.5 gai/ha",70%
COC(=O)C1(O)c2ccccc2-c2ccccc21 [Flurenol-methyl],Visual Weed Control (%) Obs,"BRAPP; 22 DAA, 68.75 gai/ha",0%
same,Visual Weed Control (%) Obs,"BRAPP; 22 DAA, 137.5 gai/ha",0%
same,Visual Weed Control (%) Obs,"BRAPP; 22 DAA, 275 gai/ha",30%
same,Visual Weed Control (%) Obs,ECHCG; 68.75 gai/ha,0%
same,Visual Weed Control (%) Obs,ECHCG; 137.5 gai/ha,0%
same,Visual Weed Control (%) Obs,ECHCG; 275 gai/ha,0%
same,Visual Weed Control (%) Obs,CYPRO; 68.75 gai/ha,0%
same,Visual Weed Control (%) Obs,CYPRO; 137.5 gai/ha,0%
same,Visual Weed Control (%) Obs,FIMMI; 68.75 gai/ha,0%
same,Visual Weed Control (%) Obs,FIMMI; 137.5 gai/ha,0%
same,Visual Weed Control (%) Obs,FIMMI; 275 gai/ha,20%
same,Visual Weed Control (%) Obs,CYPIR; 68.75 gai/ha,0%
same,Visual Weed Control (%) Obs,CYPIR; 137.5 gai/ha,0%
same,Visual Weed Control (%) Obs,CYPIR; 275 gai/ha,60%
"O=C(O)c1ccccc1C(=O)Nc1cccc2ccccc12 [Naptalam, 2-[(1-naphthalenylamino)carbonyl]benzoic acid, reference compound]",Visual Weed Control (%) Obs,"BRAPP; 22 DAA, 30 gai/ha",0%
same,Visual Weed Control (%) Obs,"BRAPP; 22 DAA, 60 gai/ha",0%
same,Visual Weed Control (%) Obs,"BRAPP; 22 DAA, 120 gai/ha",0%
same,Visual Weed Control (%) Obs,ECHOR; 330 gai/ha,20%
same,Visual Weed Control (%) Obs,ECHOR; 660 gai/ha,25%
same,Visual Weed Control (%) Obs,ECHOR; 1320 gai/ha,30%
same,Visual Weed Control (%) Obs,"LEFCH; 22 DAA, 60 gai/ha",15%
same,Visual Weed Control (%) Obs,"LEFCH; 22 DAA, 120 gai/ha",15%
same,Visual Weed Control (%) Obs,ECHCG; 330 gai/ha,20%
same,Visual Weed Control (%) Obs,"IPOHE; 22 DAA, 60 gai/ha",15%
same,Visual Weed Control (%) Obs,"IPOHE; 22 DAA, 120 gai/ha",15%
same,Visual Weed Control (%) Obs,CYPRO; 330 gai/ha,0%
same,Visual Weed Control (%) Obs,CYPRO; 1320 gai/ha,50%
same,Visual Weed Control (%) Obs,FIMMI; 330 gai/ha,50%
